This note sets out measurements from patent US8637045B2, “Therapy for lysosomal enzyme deficiencies” (University of Massachusetts, priority 2004, dated 2014).

The target in one data set is T1, β-glucosidase (Mus musculus, UniProt P17439).
T1 construct: from tissue; host or cells: tissues of C57/Bl mice dosed in vivo with CBE
T1 sequence (P17439 20-515): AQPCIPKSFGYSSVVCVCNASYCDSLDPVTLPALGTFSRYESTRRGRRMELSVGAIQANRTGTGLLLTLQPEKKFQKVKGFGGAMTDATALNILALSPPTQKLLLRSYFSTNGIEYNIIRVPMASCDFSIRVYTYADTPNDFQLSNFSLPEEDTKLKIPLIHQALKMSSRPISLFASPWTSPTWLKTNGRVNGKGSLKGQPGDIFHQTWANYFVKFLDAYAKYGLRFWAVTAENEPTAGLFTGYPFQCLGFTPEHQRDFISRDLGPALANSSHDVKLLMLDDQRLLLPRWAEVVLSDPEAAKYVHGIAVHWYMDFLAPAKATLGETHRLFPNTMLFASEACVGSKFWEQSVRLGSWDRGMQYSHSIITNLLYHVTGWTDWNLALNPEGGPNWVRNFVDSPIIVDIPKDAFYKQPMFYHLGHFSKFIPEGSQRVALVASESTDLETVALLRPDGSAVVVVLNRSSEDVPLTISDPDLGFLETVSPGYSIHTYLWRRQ
Put plainly: Gaucher mouse model produced with conduritol beta-epoxide. The data set is classed as in vivo, mice. The procedure: Two mouse models of Gaucher disease were used. The first Gaucher mouse was produced by injecting C57/Bl mice with 100 mg/kg of conduritol beta-epoxide, (CBE, 7-oxabicyclo[4.1.0]heptane-2,3,4,5-tetrol), intraperitoneally daily for 3 weeks. Three weeks of treatment of 3 month old C57/Bl mice with CBE produced an approximately 50% and 500% increase in the amount of glucosylceramide in systemic tissues and brain, respectively. […] No weight or behavioral differences occurred in 3 month old treated mice. […] Expressed as percentages of total body weight there was no difference for brain, liver, and kidney, but the spleen weight was 60% of control. […] There was a 50% and 300% increase in glucocerebroside in liver tissue and brain, respectively.

Another data set deals with S. aureus. As to the kind of experiment: S. aureus killing by J774 murine macrophages loaded with YGP particles. The data set is classed as cell-based. As to the method:
One ml of murine macrophages, J774 (5×10^5/ml) was combined with YGP, YGP:alginate—tet or tetracycline of various concentration as summarized in Table 6, above.
The J774 cells were cultured overnight in medium (DMEM containing 10% fetal calf serum without antibiotics or glutamine). […] The microbial killing assay was set up in 96 well plates. The cultures were diluted in medium and incubated overnight to allow for metabolism and release of tet from phagocytosed YGP:alginate—tet particles. Bacterial challenge was added as indicated in Table 7 and the cultures were incubated 2 hours at 37 degrees Celsius in a CO2 incubator to permit S. aureus phagocytosis and killing by the J774 murine macrophages. After this incubation, 200 μl LB Broth (Luria-Bertani Broth: 1.0% tryptone, 0.5% yeast extract, 1.0% NaCl) was added to each culture to lyze the macrophages. Cultures were incubated at 37 degrees Celsius in an incubator to permit outgrowth of surviving S. aureus. Growth was monitored by change in pH as indicated by phenol red. The effects of YGP, YGP:alginate—tet or tetracycline were compared.

[1] abbreviates: 3 month old C57/Bl mice, 100 mg/kg intraperitoneally daily for 3 weeks.
[2] abbreviates: 1 day old infant C57/Bl mice, 100 mg/kg IP daily for 3 weeks.

For the compound `OC1C(O)C(O)C2OC2C1O` (stereo not shown) [CBE, 7-oxabicyclo[4.1.0]heptane-2,3,4,5-tetrol], at β-glucosidase (setting [1]), the “increase in the amount of glucosylceramide in brain” value was around 500% and the “increase in the amount of glucosylceramide in systemic tissues” value was “approximately 50%”. Also, on β-glucosidase (setting [2]), the “increase in glucocerebroside in brain” value worked out at 300%, the “increase in glucocerebroside in liver tissue” value came to 50% and the “spleen weight (as percentage of total body weight)” value is 60 % of control. In addition, the β-glucosidase activity entry on β-glucosidase (C57/Bl mice, 100 mg/kg intraperitoneally daily for 3 weeks) is on record as “drastic reduction”.

On to `CN(C)[C@@H]1C(O)=C(C(N)=O)C(=O)[C@@]2(O)C(O)=C3C(=O)c4c(O)cccc4[C@@](C)(O)[C@H]3C[C@@H]12` [tet, tetracycline], for which the “S. aureus Killed” value with S. aureus (with J774, 1.25 μg/ml) is reported as 1 × 10^6; in the data set with S. aureus (with J774, 2.5 μg/ml), 1 × 10^7; with S. aureus (with J774, 5 μg/ml) it was >1 × 10^8; in the data set with S. aureus (with J774, 10 μg/ml), >1 × 10^8; with S. aureus (without J774, 1.25 μg/ml), 1 × 10^6; in the data set with S. aureus (without J774, 2.5 μg/ml) it was 3.3 × 10^6. The “S. aureus Killed” value in the data set on S. aureus (without J774, 5 μg/ml) is reported as >1 × 10^8; with S. aureus (without J774, 10 μg/ml) it was >1 × 10^8. For the same compound, the “Fold Increased Killing” value with S. aureus (with J774, 2.5 μg/ml) stood at 3.3; with S. aureus (without J774, 1.25 μg/ml) it was 1.
